Source: PubChem BioAssay (NCI)
Values joined by “and” are separate entries in the source; they are usually repeats but may differ in a detail not shown here. Equal values may be shown once.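 Results reflect a 48-hour exposure of cells in 96-well plates to compound at five concentrations. GI50 = concentration required for 50% inhibition of growth. TGI: total growth inhibition.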

Columns and labels:
Assay in all cases: growth of human tumour cells (NCI), 48 h
TK-10 renal = tested on: TK-10 renal
IGROV1 ovarian = tested on: IGROV1 ovarian
M14 melanoma = tested on: M14 melanoma
NCI-H226 lung = tested on: NCI-H226 lung
HT29 colon = tested on: HT29 colon
HCC-2998 colon = tested on: HCC-2998 colon
U251 CNS = tested on: U251 CNS
MOLT-4 leukemia = tested on: MOLT-4 leukemia
HS 578T breast = tested on: HS 578T breast
MDA-MB-435 = tested on: MDA-MB-435

Row | SMILES | GI50 (TK-10 renal) [µM] | TGI (TK-10 renal) [µM] | GI50 (IGROV1 ovarian) [µM] | TGI (IGROV1 ovarian) [µM] | GI50 (M14 melanoma) [µM] | TGI (M14 melanoma) [µM] | GI50 (NCI-H226 lung) [µM] | TGI (NCI-H226 lung) | GI50 (HT29 colon) [µM] | TGI (HT29 colon) [µM] | GI50 (HCC-2998 colon) [µM] | TGI (HCC-2998 colon) [µM] | GI50 (U251 CNS) [µM] | TGI (U251 CNS) | GI50 (MOLT-4 leukemia) [µM] | TGI (MOLT-4 leukemia) [µM] | TGI (HS 578T breast) [µM] | GI50 (HS 578T breast) [µM] | GI50 (MDA-MB-435) [µM] | TGI (MDA-MB-435) [µM]
1 | O=C([CH-]C(=O)c1ccccc1)c1ccccc1.O=C([CH-]C(=O)c1ccccc1)c1ccccc1.[La+3].[OH-].[OH3+] | 32.1 | > 100 | 25.8 | > 100 | 16.8 | 37.6 | 1.67 | 17.7 µM | 19.4 | 50.1 | 16.1 | 48.1 | 15.2 | > 100 µM | 6.24 | 38.6 |  |  |  | 
2 | O=C(O)C(/C=C/c1ccccc1)c1ccccc1 (stereo not given) |  | > 100 |  | > 100 |  | > 100 |  | > 100 µM |  | > 100 |  |  |  | > 100 µM |  | > 100 | > 100 |  |  | 
3 | CC(C)N(Cc1ccccc1)c1c(S)ssc1=S | 5.08 | > 100 |  |  | 4.67 | > 100 | 3.14 | 36.1 µM | 2.29 | 9.59 | 4.36 | 74 | 2.58 | 15.9 µM | 1.69 | 7.39 | 7.08 | 0.861 | 0.694 | 18.5
4 | CCC1C2Cc3ccc(O)cc3C1(CC)CCN2C (stereo not given) |  | > 100 |  | > 100 |  | > 100 |  | > 100 µM |  | > 100 |  |  |  | > 100 µM |  | > 100 | > 100 |  |  | > 100
5 | CC(C)C1CC[C@@H](C)C[C@@]1(O)CC(N)=O (stereo not given in full) |  | > 100 |  | > 100 |  | > 100 |  | > 100 µM |  | > 100 |  | > 100 |  | > 100 µM |  | > 100 |  |  |  | 
6 | Cc1ccc(S(=O)(=O)OC2CSS(=O)CC2OS(=O)(=O)c2ccc(C)cc2)cc1 (stereo not given) |  | 28.5 |  | 32.9 |  | 27.4 |  | 34.4 µM |  | 87.5 |  | 30.9 |  | 28.1 µM |  | 9.03 |  |  |  | 
7 | Oc1c(C(Nc2cccc3cccnc23)c2ccccc2)ccc2cccnc12 (stereo not given) |  |  |  | 39.9 |  |  |  | 9.79 µM |  |  |  | > 100 |  |  |  | > 100 |  |  |  | 
8 | COC(=O)/C(C)=C(/CCC1(C)OCCO1)O[Si](C)(C)C |  | > 100 |  | > 100 |  | > 100 |  |  |  | > 100 |  | > 100 |  | > 100 µM |  | > 100 |  |  |  | 
9 | Cc1cc2c(cc1C)N(C(=O)CCl)CC(=O)N2 | 2.11 | 3.59 | 2.22 | 4.45 | 2.2 | 8.35 |  |  | 2.01 | 3.73 | 2.88 | 8.91 | 1.92 | 4.25 µM | 2.41 | 7.01 | 68.8 | 4.08 | 2.67 | 10.2
10 | CCOc1ccccc1N1C(=O)C(=O)C(c2nc3ccccc3o2)C(=O)C1=O |  | > 100 |  | > 100 |  | > 100 |  | > 100 µM |  | > 100 |  | > 100 |  | > 100 µM |  | > 100 |  |  |  | 
11 | CC(C)(C)c1ccc(Oc2nccc(-c3c(-c4ccc(F)cc4)ncn3C3CCNCC3)n2)cc1 | 4.4 | 8.04 | 3.86 | 8.01 | 4.5 | 8.46 |  |  | 1.03 | 4.17 | 1.38 | 4.98 | 3.23 | 6.49 µM | 2.93 | 7.13 | 13.1 | 5.1 | 3.53 | 7.04
12 | O=C(O)C(SC(=S)c1ccc(C(=S)SC(C(=O)O)c2ccccc2)cc1)c1ccccc1 (stereo not given) |  | > 100 |  | > 100 |  | > 100 |  | > 100 µM |  | > 100 |  | > 100 |  | > 100 µM |  | > 100 |  |  |  | 
13 | Cc1cc(=O)n(-c2ccccc2C)c(C)n1 |  | > 100 |  | > 100 |  | > 100 |  | > 100 µM |  | > 100 |  | > 100 |  | > 100 µM |  | > 100 |  |  |  | 
14 | CCCCOC(=O)C1C2CCC(O2)C1C(=O)OCCCC (stereo not given) |  | > 100 |  | > 100 |  | > 82.1 |  | > 100 µM |  | > 64.2 |  | > 100 |  | > 100 µM |  | > 100 |  |  |  | 
15 | CCS(CC)(CC)CC1CCCC2=CCC(P(=O)(c3ccccc3)c3ccccc3)CC21 (stereo not given) |  | 27 |  | 28.1 |  | 25.6 |  | 39.6 µM |  | 22.8 |  | 22 |  | 23.1 µM |  | 25.2 |  |  |  | 
16 | CCOc1ccc2c(c1)[n+]([O-])c(-c1ccc(Cl)cc1)c(N)[n+]2[O-] |  |  |  | > 100 |  | > 100 |  | > 100 µM |  | > 100 |  |  |  | > 100 µM |  | > 100 |  |  |  | 
17 | COc1ccc(Br)c(N/N=C2\CCCNC2=O)c1 |  | > 100 |  | > 100 |  | > 100 |  | > 100 µM |  | > 100 |  | > 100 |  | > 100 µM |  | > 100 |  |  |  | 
18 | O=[N+]([O-])c1cc(C(F)(F)F)cc([N+](=O)[O-])c1CCl |  | 19.5 |  | 6.09 |  | 1.59 |  | 3.11 µM |  | 4.03 |  |  |  | 14.2 µM |  | 1.39 |  |  |  | 
19 | Oc1ccccc1/C=C/c1csnn1 |  | > 100 |  | > 100 |  | > 100 |  | > 100 µM |  | > 100 |  | > 100 |  | > 100 µM |  | > 100 |  |  |  | 
20 | COc1ccc(/C(COc2ccc3c(=O)cc(-c4ccccc4)oc3c2)=N\O)cc1 | 10.7 | 28.1 | 16.6 | > 47.6 | 29.1 | > 50 | 17.7 | > 50 µM | 25.6 | > 50 | 16.5 | > 50 | 14.8 | > 50 µM | > 50 | > 50 |  |  | 6.77 | 23.9
21 | COc1cc2c(c(OC)c1OC)-c1ccc(SC)c(=O)cc1C(CO)C2 (stereo not given) | > 100 | > 100 | < 0.01 | > 100 | < 0.01 | < 0.01 | < 0.01 | 0.59 µM and 0.138 µM |  | 0.385 | < 0.01 |  | < 0.01 | 0.728 µM and 0.111 µM | < 0.01 | > 100 |  |  |  | 
